This passage reports IC50 results from patent US10414797B2, “Gelatinase inhibitors and use thereof” (Iproteos S.L, priority 2015, dated 2019).

pIC50: −log10 of the molar value. Where a SMILES comes first, the peptide text is derived from it. [ ]: non-standard residue; d: D form. The star is where a group is joined. ξ: configuration not given here. NMeW = CN[C@@H](Cc1c[nH]c2ccccc12)C(=O)O; Benzoyl(3,5-F2) = O=C(c1cc(F)cc(F)c1)*; NMeIle(3ξ) = CCC(C)[C@H](NC)C(=O)O; NMeQ = CN[C@@H](CCC(N)=O)C(=O)O; NMeL = CN[C@@H](CC(C)C)C(=O)O; Dab = NCC[C@H](N)C(=O)O; Butyryl = CCCC(=O)*; NHOH = ON*

Holding throughout (type): biochemical
Assay [1] deals with MMP-7 (Homo sapiens (Human), UniProt P09237). The assay is described as follows: MMP-7 inhibition assay (fluorogenic peptide substrate). Conditions: recombinant MMP-7 8.3 nM, Mca-PLGL-Dpa-AR-NH2 10 μM, 4 hours at room temperature; tested at 1, 10, 100 and 200 μM. As to the method:
(§1) All the experiments were done in 1× reaction buffer, which was obtained from a 10× reaction buffer solution. The content of the 10× reaction buffer was: 50 mL of 0.5 M Tris-HCl, 1.5 M NaCl, 50 mM CaCl2 and 2 mM sodium azide at pH 7.6. To obtain the 1× reaction buffer 4 mL of the 10× reaction buffer were diluted in 36 mL of H2O.
Recombinant MMP-7 expressed in E. Coli was obtained from Merck-Millipore (catalog number 44270). Mca-PLGL-Dpa-AR-NH2 (fluorogenic peptide substrate) was obtained from R&D Systems (catalog number ES001).
Preparation of the MMP-7 for the activity assay: MMP-7 was provided as a stock solution (2.1 mg/mL). The enzyme was diluted in water to a final concentration of 0.005 mg/mL.
MMP-7 peptide substrate was provided as a solid (1 mg). A 4 mM stock solution of the substrate in DMSO was obtained by adding 214.7 μL of DMSO. After which, a 100 μM solution of substrate was prepared in 1× reaction buffer.
Procedure: The enzymatic assays were performed in 96-well microtiter plate, which allowed simultaneous monitoring of multiple reactions. For each reaction, 84.6 μL of 1× reaction buffer (pH 7.6), 3.4 μL of MMP-7 (final concentration 8.3 nM) and 2 μL of the corresponding new compound were added to each well. A stock solution of new compound was prepared in DMSO (100 mM), and dilutions were prepared from this stock solution with DMSO. Finally, to the mixture contained in each well 10 μL of the substrate were added (final concentration 10 μM). The reaction was incubated for 4 hours at room temperature in an orbital shaker (90 rpm).
The inhibitory activity of the new compound was measured fluorimetrically. The excitation and emission wavelengths were 320 and 405 nm, respectively.
Inhibitory activity at several concentration points (1, 10, 100 and 200 μM) were measured for each compound. The inhibitory activity on MMP-1, MMP-3 and MMP-7 was calculated according to eq 1 and The IC50 value was calculated as explained above for MMP-2 and MMP-9.

Assay [2] has as its target MMP-2 (Homo sapiens (Human), UniProt P08253). Put plainly: MMP-2 inhibition assay (fluorimetric, DQ gelatin substrate). Conditions: recombinant MMP-2 (CHO cells) 85 ng/mL, DQ gelatin 50 μg/mL, 2 hours at room temperature, pH 7.6. As to the method:
as §1
Recombinant MMP-2 expressed in Chinese hamster ovary (CHO) cells was obtained from Merck-Millipore (catalog number PF023-5UG). DQ gelatin from pig skin fluorescein conjugated (MMP-2 substrate) was obtained from Life Technologies (catalog number E12055).
Preparation of the MMP-2 for the activity assay: MMP-2 was provided as a stock solution (0.1 mg/mL). The enzyme was diluted in 1× reaction buffer to a final concentration of 5 μg/mL.
(§2) Preparation of the DQ gelatin (substrate) solution for the activity assay: the solid form of the substrate was dissolved in water in order to obtain a stock solution of 1 mg/mL.
(§3) Procedure: The enzymatic assays were performed in 96-well microtiter plate, which allowed simultaneous monitoring of multiple reactions. For each reaction, 86.3 μL of 1× reaction buffer (pH 7.6), 1.7 μL of MMP-2 (final concentration 85 ng/mL) and 2 μL of the corresponding new compound were added to each well. A stock solution of new compound was prepared in DMSO (100 mM), and dilutions were prepared from this stock solution with DMSO. Finally, to the mixture contained in each well 10 μL of the substrate were added (final concentration 50 μg/mL). The reaction was incubated for 2 hours at room temperature in an orbital shaker (100 rpm).
(§4) The inhibitory activity of the new compound was measured fluorimetrically. The excitation and emission wavelengths were 483 and 525 nm, respectively.
(§5) Inhibitory activity at several concentration points (ranging from 100 pM to 200 μM MMP) were measured for each compound. The inhibitory activity on MMP-2 and MMP-9 was calculated according to eq 1. For each new compound, the fluorescence in the presence (a) and in the absence (b) of the corresponding MMP was measured. The maximum fluorescence (0% inhibitory activity) was obtained from a sample of the corresponding MMP in the absence of inhibitory compounds. To estimate the inhibitory potency of the novel compounds, activities were plotted against the log concentration of the compound, adjusting to a sigmoid curve using GraphPad Prism software, and the IC50 value, defined as the concentration of compound required to inhibit 50% of the corresponding MMP activity, was determined from resulting curve.
(§6) a corresponds to fluorescence intensity in the presence of substrate+test compound+MMP
(§7) b corresponds to the fluorescence intensity in the presence of substrate+tested compound
(§8) c corresponds to the fluorescence intensity in the presence of substrate+MMP
(§9) d corresponds to the fluorescence intensity of the presence of substrate

The target in assay [3] is MMP-9. Put plainly: MMP-9 inhibition assay (fluorimetric, DQ gelatin substrate). Conditions: recombinant MMP-9 (Merck-Millipore for examples 1 to 9 and comparative examples; Enzo for examples 10 to 16), DQ gelatin 50 μg/mL, 4 hours at room temperature, pH 7.6. How it is done: as §1
Chain of MMP-9 (P14780 107-707 limits assumed): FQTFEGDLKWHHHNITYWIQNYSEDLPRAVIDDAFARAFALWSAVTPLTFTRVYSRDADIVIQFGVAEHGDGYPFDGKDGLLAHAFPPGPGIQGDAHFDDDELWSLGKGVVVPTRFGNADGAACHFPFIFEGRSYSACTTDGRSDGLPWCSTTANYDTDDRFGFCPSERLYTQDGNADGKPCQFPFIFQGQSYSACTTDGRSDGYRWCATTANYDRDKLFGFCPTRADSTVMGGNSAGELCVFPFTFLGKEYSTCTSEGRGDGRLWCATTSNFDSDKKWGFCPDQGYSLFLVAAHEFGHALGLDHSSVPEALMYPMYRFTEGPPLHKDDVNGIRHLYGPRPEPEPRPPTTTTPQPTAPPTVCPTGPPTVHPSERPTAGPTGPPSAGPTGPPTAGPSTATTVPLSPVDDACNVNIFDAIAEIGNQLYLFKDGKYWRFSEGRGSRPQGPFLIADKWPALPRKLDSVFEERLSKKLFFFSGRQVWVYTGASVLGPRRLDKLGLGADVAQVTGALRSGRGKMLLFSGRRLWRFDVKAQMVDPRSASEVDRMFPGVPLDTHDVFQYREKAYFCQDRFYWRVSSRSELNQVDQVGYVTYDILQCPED
(§10) Recombinant MMP-9 expressed was obtained from Merck-Millipore (catalog number PF140-5UG, used in examples 1 to 9 and comparative examples) and Enzo (catalog number-SE360-0010, used in examples 10 to 16). DQ gelatin from pig skin fluorescein conjugated (MMP-9 substrate) was obtained from Life Technologies (catalog number E12055).
(§11) Preparation of the MMP-9 for the activity assay: MMP-9 was provided as a stock solution (0.1 mg/mL). The enzyme was diluted in 1× reaction buffer to a final concentration of 5 μg/mL.
as §2
as §3, with “reaction, 84.6” for “reaction, 86.3”, “7.6), […]” for “7.6), 1.7”, “of MMP-9” for “of MMP-2”, “for 4” for “for 2”
as §4, §5, §6, §7, §8, §9

Assay [4] has as its target MMP-9 (Homo sapiens, UniProt P14780). The assay is described as above. Conditions: recombinant MMP-9 (Merck-Millipore for examples 1 to 9 and comparative examples; Enzo for examples 10 to 16), DQ gelatin 50 μg/mL, 4 hours at room temperature, pH 7.6. How it is done: as §1, §10, §11, §2
as §3, with “reaction, 84.6” for “reaction, 86.3”, “7.6), […]” for “7.6), 1.7”, “of MMP-9” for “of MMP-2”, “for 4” for “for 2”
as §4, §5, §6, §7, §8, §9

Chain of MMP-7 (P09237 95-267): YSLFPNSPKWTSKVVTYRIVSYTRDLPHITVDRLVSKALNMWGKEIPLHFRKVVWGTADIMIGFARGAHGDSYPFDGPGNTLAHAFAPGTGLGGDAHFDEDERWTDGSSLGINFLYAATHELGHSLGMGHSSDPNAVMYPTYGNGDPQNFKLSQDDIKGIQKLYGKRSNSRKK
Chain of MMP-2 (P08253 110-660): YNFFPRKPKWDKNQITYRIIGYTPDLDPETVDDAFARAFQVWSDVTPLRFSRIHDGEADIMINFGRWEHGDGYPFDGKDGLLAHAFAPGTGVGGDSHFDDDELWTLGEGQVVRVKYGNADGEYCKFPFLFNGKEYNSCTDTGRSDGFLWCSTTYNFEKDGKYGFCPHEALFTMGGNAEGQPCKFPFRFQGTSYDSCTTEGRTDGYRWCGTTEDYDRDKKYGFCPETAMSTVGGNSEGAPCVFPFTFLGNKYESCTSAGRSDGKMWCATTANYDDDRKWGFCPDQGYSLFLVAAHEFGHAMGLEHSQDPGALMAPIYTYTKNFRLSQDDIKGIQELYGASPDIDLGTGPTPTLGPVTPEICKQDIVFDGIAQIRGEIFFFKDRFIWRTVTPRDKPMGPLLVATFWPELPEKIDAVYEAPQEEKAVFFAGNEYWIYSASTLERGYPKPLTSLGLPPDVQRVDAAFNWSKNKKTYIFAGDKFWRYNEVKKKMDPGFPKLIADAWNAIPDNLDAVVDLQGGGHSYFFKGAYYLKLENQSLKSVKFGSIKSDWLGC
Chain of MMP-9 (Homo sapiens, UniProt P14780) (P14780 107-707 limits assumed): as the sequence (P14780 107-707 limits assumed) above

For `CCC(C)[C@@H](C(=O)N[C@@H](CCNC(=O)c1cc(F)cc(F)c1)C(=O)NO)N(C)C(=O)[C@@H]1CCCN1C(=O)CCN(C)C(C)=O` (stereo partly drawn) [Example 13, (2S)-1-[3-[acetyl(methyl)amino]propanoyl]-N-[(1S)-1-[[(1S)-3-[(3,5-difluorobenzoyl)amino]-1-(hydroxycarbamoyl)propyl]carbamoyl]-2-methyl-butyl]-N-methyl-pyrrolidine-2-carboxamide], the pIC50 in assay [1] is 4.30; in assay [2], 5.94; in assay [3], 6.47.

Take `CCCC(=O)N1CCC[C@H]1C(=O)N(C)[C@H](C(=O)N[C@@H](CCNC(=O)c1cc(F)cc(F)c1)C(=O)NO)C(C)CC` (stereo partly drawn) [Example 4, (2S)-1-butanoyl-N-[(1S)-1-[[(1S)-3-[(3,5-difluorobenzoyl)amino]-1-(hydroxycarbamoyl)propyl]carbamoyl]-2-methyl-butyl]-N-methyl-pyrrolidine-2-carboxamide]: the values for the pIC50 in assay [1], in assay [2] and in assay [4] were 5.35, 7.21 and 6.63, respectively.

Take `CCC(C)[C@@H](C(=O)N[C@@H](CCNC(=O)c1ccc(F)cc1)C(=O)NO)N(C)C(=O)[C@@H]1CCCN1C(C)=O` (stereo partly drawn) [Example 1, (2S)-1-acetyl-N-[(1S)-1-[[(1S)-3-[(4-fluorobenzoyl)amino]-1-(hydroxycarbamoyl)propyl]carbamoyl]-2-methyl-butyl]-N-methyl-pyrrolidine-2-carboxamide]: the pIC50 in assay [1] was 4.64; in assay [2], 6.69; in assay [3], 5.90.

Turning to `CCC(C)[C@@H](C(=O)N[C@@H](CCNC(=O)c1cc(F)cc(F)c1)C(=O)NO)N(C)C(=O)[C@@H]1CCCN1C(C)=O` (stereo partly drawn) [Example 2, (2S)-1-acetyl-N-[(1S)-1-[[(1S)-3-[(3,5-difluorobenzoyl)amino]-1-(hydroxycarbamoyl)propyl]carbamoyl]-2-methyl-butyl]-N-methyl-pyrrolidine-2-carboxamide], the pIC50 in assay [1] is 4.50; in assay [2], 6.62; in assay [3] it was 6.52.

On to `CCC(C)[C@@H](C(=O)N[C@@H](CCNC(=O)c1cc(F)cc(F)c1)C(=O)NO)N(C)C(=O)[C@@H]1CCCN1C(=O)CCCOc1ccccc1` (stereo partly drawn) [Example 9, (2S)—N-[(1S)-1-[[(1S)-3-[(3,5-difluorobenzoyl)amino]-1-(hydroxycarbamoyl)propyl]carbamoyl]-2-methyl-butyl]-N-methyl-1-(4-phenoxybutanoyl)pyrrolidine-2-carboxamide], for which the pIC50 in assay [1] is 4.39; in assay [2], 6.44; in assay [3] it was 6.30.

`CCC(C)[C@@H](C(=O)N[C@@H](CCNC(=O)c1cc(F)cc(F)c1)C(=O)NO)N(C)C(=O)[C@@H]1CCCN1C(=O)CC(C)C` (stereo partly drawn) [Example 5, (2S)—N-[(1S)-1-[[(1S)-3-[(3,5-difluorobenzoyl)amino]-1-(hydroxycarbamoyl)propyl]carbamoyl]-2-methyl-butyl]-N-methyl-1-(3-methylbutanoyl)pyrrolidine-2-carboxamide]: the figures for the negative-log IC50 (pIC50) in assay [1], in assay [2] and in assay [3] were 5.46, 6.94 and 6.22, respectively.

For the molecule `CCC(C)[C@@H](C(=O)N[C@@H](CCNC(=O)c1cc(F)cc(F)c1)C(=O)NO)N(C)C(=O)[C@@H]1CC(F)(F)CN1C(=O)CCCOc1ccccc1` (stereo partly drawn) [Example 10, (2S)—N-[(1S)-1-[[(1S)-3-[(3,5-difluorobenzoyl)amino]-1-(hydroxycarbamoyl)propyl]carbamoyl]-2-methyl-butyl]-4,4-difluoro-N-methyl-1-(4-phenoxybutanoyl)pyrrolidine-2-carboxamide], the values for the pIC50 in assay [1], in assay [2] and in assay [3] were 5.09, 7.43 and 6.65, respectively.

For the molecule `CC(=O)N1CCC[C@H]1C(=O)N(C)[C@@H](CCC(N)=O)C(=O)N[C@@H](Cc1c[nH]c2ccccc12)C(=O)NO` [Example C20, (2S)-2-[[(2S)-1-acetylpyrrolidine-2-carbonyl]-methyl-amino]-N-[(1S)-2-(hydroxyamino)-1-(1H-indol-3-ylmethyl)-2-oxo-ethyl]pentanediamide, reference compound] (Ac-Pro-[NMeQ]-Trp-{NHOH}), the negative logarithm of the IC50 (pIC50) in assay [1] is below 2.70; in assay [2], 4.28; in assay [3], 4.66.

Consider `CCCC(=O)N(C)[C@@H](Cc1c[nH]c2ccccc12)C(=O)N(C)[C@@H](CC(C)C)C(=O)N1CCC[C@H]1C(=O)N(C)[C@H](C(=O)N[C@@H](CCNC(=O)c1cc(F)cc(F)c1)C(=O)NO)C(C)CC` (stereo partly drawn) [Example 14, (2S)-1-[(2S)-2-[[(2S)-2-[butanoyl(methyl)amino]-3-(1H-indol-3-yl)propanoyl]-methyl-amino]-4-methyl-pentanoyl]-N-[(1S)-1-[[(1S)-3-[(3,5-difluorobenzoyl)amino]-1-(hydroxycarbamoyl)propyl]carbamoyl]-2-methyl-butyl]-N-methyl-pyrrolidine-2-carboxamide] (Butyryl-[NMeW][NMeL]P[NMeIle(3ξ)][Dab](Benzoyl(3,5-F2))-{NHOH}), for which the pIC50 in assay [1] was 4.21; in assay [2] it was 6.94; in assay [3], 7.34.

`CC(=O)N1CCC[C@H]1C(=O)N[C@@H](CCC(N)=O)C(=O)N[C@@H](Cc1c[nH]c2ccccc12)C(=O)NO` [Example C17, (2S)-2-[[(2S)-1-acetylpyrrolidine-2-carbonyl)amino]-N-[(1S)-2-(hydroxyamino)-1-(1H-indol-3-ylmethyl)-2-oxo-ethyl]pentanediamide, reference compound] (Ac-Pro-Gln-Trp-{NHOH}): the pIC50 was below 2.70 in assay [1], 3.96 in assay [2] and 2.46 in assay [3].

One may read the pIC50 as −log10 of the IC50, conventionally taken in molar units.
